Patent publication US12157730B2, “Heteroaryl derivative, method for producing same, and pharmaceutical composition comprising same as effective component” (VORONOI INC., priority 2019, dated 2024)
“And” between values parts separate entries of the source, which are not always exact repeats. Equal entries are not always repeated.

Experiments:
[1] = target: T1, Ba/F3 cell EGFR L858R/T790M (Homo sapiens, UniProt P00533, L858R/T790M); assay: Ba/F3 cell proliferation suppression, EGFR L858R/T790M; format: cell-based; conditions: 72 hours after treatment, CellTiter-Glo
T1 construct: expressed in transfected cells; host or cells: Ba/F3
Protocol: (§1) The following experiment was carried out to evaluate the suppression activity of the compounds according to the present invention against proliferation of Ba/F3 and lung cancer cells which express EGFR mutations.
(§2) Of the cancer cell lines expressing the EGFR gene, A549 was cultured after adding 10% FBS (HyClone) to DMEM (Invitrogen), and RPMI-1640 (Invitrogen) with 10% FBS was used for the other cancer cells. For the Ba/F3 cells, RPMI-1640 with 10% FBS and 5 ng/ml IL-3 (R&D Systems) was used. The transduced Ba/F3 cells were cultured by adding 1 ug/ml puromycin (Invitrogen) to the same medium.
(§3) 24 hours before treatment with the compounds, 3000 to 5000 cells were distributed into each well of a white clear bottom 96 well plate (Corning). The compounds were diluted in dimethylsulfoxide (dilution ratio 3:1; 12 concentrations total) and injected 0.5 ul each for a final concentration of 0.3 nM to 50 um. As for measurement of live cells, 72 hours after treatment with the compounds, a CellTiter-Glo luminescent cell-viability reagent (Promega) was used to store the cells at room temperature for 10 minutes, followed by measurement of luminescence using a reader (SynergyNeo, Biotek). Each test was repeated three times.
(§4) The result was calculated as a cell growth ratio (%) compared to a control. The program GraphPad Prism version 5.0 was used to draw the graphs and calculate the GI50 values.

Ba/F3 cell naive = assay: Ba/F3 cell proliferation suppression, naive; format: cell-based; conditions: Mus musculus, BaF3; 72 hours after treatment, CellTiter-Glo
Protocol: as §1, §2, §3, §4

[2] = system: Ba/F3 cell EGFR Del19/T790M; assay: Ba/F3 cell proliferation suppression, EGFR Del19/T790M; format: cell-based; conditions: 72 hours after treatment, CellTiter-Glo
Protocol: as §1, §2, §3, §4

Ba/F3 cell EGFR L858R = target: T2, Ba/F3 cell EGFR L858R (Homo sapiens, UniProt P00533, L858R); assay: Ba/F3 cell proliferation suppression, EGFR L858R; format: cell-based; conditions: 72 hours after treatment, CellTiter-Glo
T2 construct: expressed in transfected cells; host or cells: Ba/F3
Protocol: as §1, §2, §3, §4

H1975 = assay: Lung cancer cell proliferation suppression, H1975; format: cell-based; conditions: Homo sapiens, NCI-H1975; 72 hours after treatment, CellTiter-Glo
Protocol: as §1, §2, §3, §4

[3] = target: T3, Ba/F3 cell HER2 Exon20 ins YVMA (Homo sapiens, UniProt P04626, INS775YVMA); assay: Ba/F3 cell proliferation suppression, HER2 Exon20 ins YVMA; format: cell-based; conditions: 72 hours after treatment, CellTiter-Glo
T3 construct: expressed in transfected cells; host or cells: Ba/F3
Protocol: as §1, §2, §3, §4

[4] = target: T4, Ba/F3 cell EGFR Exon20 ins SVD (Homo sapiens, UniProt P00533, INS770SVD); assay: Ba/F3 cell proliferation suppression, EGFR Exon20 ins SVD; format: cell-based; conditions: 72 hours after treatment, CellTiter-Glo
T4 construct: expressed in transfected cells; host or cells: Ba/F3
Protocol: as §1, §2, §3, §4

PC9GR = assay: Lung cancer cell proliferation suppression, PC9GR; format: cell-based; conditions: 72 hours after treatment, CellTiter-Glo
Protocol: as §1, §2, §3, §4

[5] = target: T5, Ba/F3 cell EGFR Exon20 ins ASV (Homo sapiens, UniProt P00533, INS769ASV); assay: Ba/F3 cell proliferation suppression, EGFR Exon20 ins ASV; format: cell-based; conditions: 72 hours after treatment, CellTiter-Glo
T5 construct: expressed in transfected cells; host or cells: Ba/F3
Protocol: as §1, §2, §3, §4

[6] = target: T6, Ba/F3 cell EGFR Exon20 ins NPH (Homo sapiens, UniProt P00533, INS773NPH); assay: Ba/F3 cell proliferation suppression, EGFR Exon20 ins NPH; format: cell-based; conditions: for GI50: 72 hours after treatment, CellTiter-Glo; for Ba/F3 (NPH) Activity: GI50 class, Ba/F3 cell line with NPH inserted at Exon20 of EGFR, 72 hours
T6 construct: expressed in transfected cells; host or cells: Ba/F3
Summary of the method: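 After 72 h compound exposure (twelve 3-fold steps, 0.3 nM–50 um final), live cells were measured by CellTiter-Glo luminescence and growth expressed as % of control to derive GI50. Cells were seeded at 3000–5000 per well a day earlier; Ba/F3 medium contained IL-3; three repeats.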

[7] = system: scanMAX kinase panel (EGFR mutant, ERBB2, ERBB4); assay: DiscoverX (eurofin) KINOMEscan (scanMAX platform) kinase profiling; format: binding; conditions: for suppression activity against the EGFR mutant and ERBB2 and ERBB4: KINOMEscan scanMAX kinase profiling
Source text: It was confirmed that the above example compounds had high selectivity against EGFR series genes. Accordingly, these can be useful in the treating of cancers wherein this kinase is expressed. In particular, as they have substantially outstanding lung cancer cell line proliferation suppression, they can be useful in the treatment of lung cancer, breast cancer, and brain cancer.

[8] = target: T7, Ba/F3 cell EGFR Exon20 ins FQEA (Homo sapiens, UniProt P00533, INS763FQEA); assay: Ba/F3 cell proliferation suppression, EGFR Exon20 ins FQEA; format: cell-based; conditions: 72 hours after treatment, CellTiter-Glo
T7 construct: expressed in transfected cells; host or cells: Ba/F3
Protocol: as §1, §2, §3, §4

PC9 = assay: Lung cancer cell proliferation suppression, PC9; format: cell-based; conditions: Homo sapiens, PC-9; 72 hours after treatment, CellTiter-Glo
Protocol: as §1, §2, §3, §4

T3 sequence (P04626 with tags, fused parts or gaps INS775YVMA): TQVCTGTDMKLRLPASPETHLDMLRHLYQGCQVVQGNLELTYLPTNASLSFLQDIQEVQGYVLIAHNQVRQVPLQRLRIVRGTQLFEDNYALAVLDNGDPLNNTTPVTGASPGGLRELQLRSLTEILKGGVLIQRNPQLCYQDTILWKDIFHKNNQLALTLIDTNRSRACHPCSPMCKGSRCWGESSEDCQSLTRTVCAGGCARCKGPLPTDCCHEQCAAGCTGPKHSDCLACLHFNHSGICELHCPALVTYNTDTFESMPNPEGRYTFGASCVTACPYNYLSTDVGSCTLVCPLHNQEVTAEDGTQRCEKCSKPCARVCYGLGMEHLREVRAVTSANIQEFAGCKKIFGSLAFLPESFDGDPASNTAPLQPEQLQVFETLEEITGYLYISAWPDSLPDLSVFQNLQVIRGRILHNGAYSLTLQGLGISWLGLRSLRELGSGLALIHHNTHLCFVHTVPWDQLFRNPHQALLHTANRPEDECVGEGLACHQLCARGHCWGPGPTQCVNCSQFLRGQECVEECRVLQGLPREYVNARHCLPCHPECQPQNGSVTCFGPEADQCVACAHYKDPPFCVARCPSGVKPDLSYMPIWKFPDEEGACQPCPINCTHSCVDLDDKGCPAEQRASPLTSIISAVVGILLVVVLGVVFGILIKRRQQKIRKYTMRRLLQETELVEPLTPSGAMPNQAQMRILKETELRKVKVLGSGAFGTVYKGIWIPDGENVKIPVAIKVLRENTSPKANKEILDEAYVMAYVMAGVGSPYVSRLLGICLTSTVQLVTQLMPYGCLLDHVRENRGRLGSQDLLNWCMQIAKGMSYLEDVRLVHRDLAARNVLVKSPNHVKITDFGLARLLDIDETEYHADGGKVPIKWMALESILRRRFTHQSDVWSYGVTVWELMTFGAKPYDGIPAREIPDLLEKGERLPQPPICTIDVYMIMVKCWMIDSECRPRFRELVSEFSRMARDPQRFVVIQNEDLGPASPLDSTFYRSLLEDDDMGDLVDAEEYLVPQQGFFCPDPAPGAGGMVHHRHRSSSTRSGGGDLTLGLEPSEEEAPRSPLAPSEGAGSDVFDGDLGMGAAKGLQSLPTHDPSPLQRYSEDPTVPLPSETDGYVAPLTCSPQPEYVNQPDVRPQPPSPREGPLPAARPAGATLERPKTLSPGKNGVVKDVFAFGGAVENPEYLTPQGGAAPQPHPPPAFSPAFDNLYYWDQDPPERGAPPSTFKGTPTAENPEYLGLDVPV

Row | Structure (SMILES) | GI50 [1] [µM] | GI50 (Ba/F3 cell naive) [µM] | GI50 [2] [µM] | GI50 (Ba/F3 cell EGFR L858R) [µM] | GI50 [5] [µM] | GI50 [6] [µM] | Ba/F3 (NPH) Activity [6] | also measured
1 | C=CC(=O)Nc1cc(Nc2cc(N3OCC[C@@H]3c3ccccc3)ncn2)c(OC)cc1N1CCOCC1 [Example 5, N-(4-methoxy-2-morpholino-5-((6-((R)-3-phenylisoxazolidine-2-yl)pyrimidine-4-yl)amino)phenyl) acrylamide] | 0.05 to 0.5 | ≥ 5 | 0.05 to 0.5 | < 0.05 |  |  |  | 
2 | C=CC(=O)Nc1cc(Nc2cc(N3OCC[C@H]3c3ccccc3)ncn2)c(OC)cc1N1CCOCC1 [Example 2, N-(4-methoxy-2-morpholino-5-((6-((S)-3-phenylisoxazolidine-2-yl)pyrimidine-4-yl)amino)phenyl) acrylamide] | 0.5 to 5 | ≥ 5 | 0.5 to 5 | 0.05 to 0.5 |  |  |  | 
3 | C=CC(=O)Nc1cc(Nc2cc(N3OCC[C@@H]3c3ccccc3)ncn2)c(OC)cc1N1CCN(C2CC2)CC1 [Example 7, N-(2-(4-cyclopropylpiperazine-1-yl)-4-methoxy-5-((6-((R)-3-phenylisoxazolidine-2-yl)pyrimidine-4-yl)amino)phenyl) acrylamide] | 0.05 to 0.5 | ≥ 5 | < 0.05 |  |  |  |  | 
4 | C=CC(=O)Nc1cc(Nc2cc(N3OCC[C@@H]3c3ccccc3)ncn2)c(OC)cc1OCCN(C)C [Example 8, N-(2-(2-(dimethylamino)ethxy)-4-methoxy-5-((6-(R)-3-phenylisoxazolidine-2-yl)pyrimidine-4-yl-amino)phenyl) acrylamide] | 0.05 to 0.5 | 0.5 to 5 | 0.05 to 0.5 |  |  |  |  | 
5 | C=CC(=O)Nc1cc(Nc2cc(N3OCC[C@H]3c3ccccc3)ncn2)c(OC)cc1N(C)CCN(C)C [Example 1, N-(2((2-(dimethylamino)ethyl) (methyl)amino)-4-methoxy-5-((6-((S)-3-phenylisoxazolidine-2-yl)pyrimidine-4-yl)amino)phenyl) acrylamide] | 0.05 to 0.5 | ≥ 5 | 0.05 to 0.5 | < 0.05 |  |  |  | 
6 | C=CC(=O)Nc1cc(Nc2cc(N3OCC[C@@H]3c3cc(F)cc(F)c3)ncn2)c(OC)cc1N1CCC(N2CCN(C)CC2)CC1 [Example 26, N-(5-((6-((R)-3-(3,5-difluorophenyl)isoxazolidine-2-yl)pyrimidine-4-yl)amino)-4-methoxy-2-(4-(4-methylpiperazine-1-yl)piperidine-1-yl)phenyl)acrylamide] | < 0.05 | ≥ 5 |  |  |  | < 0.05 | A (GI50 < 50 nM) | GI50 [3]: < 0.05 µM; GI50 [4]: < 0.05 µM

Further lines, with some results ahead:

Row | GI50 [1] [µM] | GI50 (Ba/F3 cell naive) [µM] | GI50 [2] [µM] | GI50 (Ba/F3 cell EGFR L858R) [µM] | GI50 [5] [µM] | GI50 [6] [µM] | Ba/F3 (NPH) Activity [6] | Structure (SMILES) | also measured
7 | < 0.05 | 0.5 to 5 | < 0.05 | < 0.05 | < 0.05 | < 0.05 | A (GI50 < 50 nM) | C=CC(=O)Nc1cc(Nc2cc(N3OCC[C@@H]3c3cc(F)cc(F)c3)ncn2)c(OC)cc1N1CCC(N(C)C)CC1 [Example 241, N-(5-((6-((R)-3-(3,5-difluorophenyl)isoxazolidine-2-yl)pyrimidine-4-yl)amino)-2-(4-(dimethylamino)piperidine-1-yl)-4-methoxyphenyl) acrylamide] | GI50 (H1975): 1 nM; GI50 [3]: < 0.05 µM; GI50 [4]: < 0.05 µM; GI50 (PC9GR): 12 nM; % inhibition of scanMAX Kinase profiling ([7]; EGFR(E746-A750del)): 50% and 100%; % inhibition of scanMAX Kinase profiling ([7]; EGFR(G719C)): 100%; % inhibition of scanMAX Kinase profiling ([7]; EGFR(G719S)): 100% and 99%; % inhibition of scanMAX Kinase profiling ([7]; EGFR(L747-E749del, A750P)): 99% and 98%; % inhibition of scanMAX Kinase profiling ([7]; EGFR(L747-T751del.Sins)): 100% and 96%; % inhibition of scanMAX Kinase profiling ([7]; EGFR(L858R.T790M)): 96% and 98%; % inhibition of scanMAX Kinase profiling ([7]; EGFR(L861q)): 100% and 98%; % inhibition of scanMAX Kinase profiling ([7]; EGFR(S752-I759del)): 100% and 95%; % inhibition of scanMAX Kinase profiling ([7]; EGFR(T790M)): 100%; % inhibition of scanMAX Kinase profiling ([7]; ERBB2): 100%; % inhibition of scanMAX Kinase profiling ([7]; ERBB4): 100% and 94%; suppression activity against the EGFR mutant and ERBB2 and ERBB4 [7]: high suppression activity; GI50 [8]: < 0.05 µM; GI50 (PC9): 1 nM
8 | < 0.05 | 0.5 to 5 | < 0.05 | < 0.05 | < 0.05 | < 0.05 | A (GI50 < 50 nM) | C=CC(=O)Nc1cc(Nc2cc(N3OCC[C@@H]3c3cc(F)cc(F)c3)ncn2)c(OC)cc1N1CCC(N2CCN(CC)CC2)CC1 [Example 236, N-(5-((6-((R)-3-(3,5-difluorophenyl)isoxazolidine-2-yl)pyrimidine-4-yl)amino)-2-(4-(4-ethylpiperazine-1-yl)piperidine-1-yl)-4-methoxyphenyl) acrylamide] | GI50 (H1975): 1 nM; GI50 [3]: < 0.05 µM; GI50 [4]: < 0.05 µM; GI50 (PC9GR): 7 nM; % inhibition of scanMAX Kinase profiling ([7]; EGFR(E746-A750del)): 89%; % inhibition of scanMAX Kinase profiling ([7]; EGFR(G719C)): 100%; % inhibition of scanMAX Kinase profiling ([7]; EGFR(G719S)): 100%; % inhibition of scanMAX Kinase profiling ([7]; EGFR(L747-E749del, A750P)): 98%; % inhibition of scanMAX Kinase profiling ([7]; EGFR(L747-T751del.Sins)): 100%; % inhibition of scanMAX Kinase profiling ([7]; EGFR(L858R)): 100%; % inhibition of scanMAX Kinase profiling ([7]; EGFR(L858R.T790M)): 98%; % inhibition of scanMAX Kinase profiling ([7]; EGFR(L861q)): 98%; % inhibition of scanMAX Kinase profiling ([7]; EGFR(S752-I759del)): 89%; % inhibition of scanMAX Kinase profiling ([7]; EGFR(T790M)): 100%; % inhibition of scanMAX Kinase profiling ([7]; ERBB2): 100%; % inhibition of scanMAX Kinase profiling ([7]; ERBB4): 100%; suppression activity against the EGFR mutant and ERBB2 and ERBB4 [7]: high suppression activity; GI50 [8]: < 0.05 µM; GI50 (PC9): 1 nM
9 | < 0.05 | ≥ 5 |  |  | < 0.05 | < 0.05 | A (GI50 < 50 nM) | C=CC(=O)Nc1cc(Nc2cc(N3OCC[C@@H]3c3cc(F)cc(F)c3)ncn2)c(OC)cc1N1CCC(N2CC[C@@H](N(C)C)C2)CC1 [Example 237, N-(5-((6-((R)-3-(3,5-difluorophenyl)isoxazolidine-2-yl)pyrimidine-4-yl)amino)-2-(4-((R)-3-(dimethylamino)pyrolidine-1-yl)piperidine-1-yl)-4-methoxyphenyl) acrylamide] | 
10 | < 0.05 | ≥ 5 |  |  | < 0.05 | < 0.05 | A (GI50 < 50 nM) | C=CC(=O)Nc1cc(Nc2cc(N3OCC[C@@H]3c3cc(F)cc(F)c3)ncn2)c(OC)cc1N1CCN(CC)CC1 [Example 240, N-(5-((6-((R)-3-(3,5-difluorophenyl)isoxazolidine-2-yl)pyrimidine-4-yl)amino)-2-(4-ethylpiperazine-1-yl)-4-methoxyphenyl) acrylamide] | 
11 | < 0.05 | 0.5 to 5 |  |  |  | < 0.05 | A (GI50 < 50 nM) | C=CC(=O)Nc1cc(Nc2cc(N3OCC[C@@H]3c3cc(F)cc(F)c3)ncn2)c(OC)cc1N1CCC(N2CCC(N(C)C)CC2)CC1 [Example 253] | 
12 | < 0.05 | ≥ 5 |  |  |  | < 0.05 | A (GI50 < 50 nM) | C=CC(=O)Nc1cc(Nc2cc(N3OCC[C@@H]3c3cc(F)cc(F)c3)ncn2)c(OC)cc1N1CCC(N2C3CC2CN(CC)C3)CC1 [Example 249, N-(5-((6-((R)-3-(3,5-difluorophenyl)isoxazolidine-2-yl)pyrimidine-4-yl)amino)-2-(4-(3-ethyl-3,6-diazabicyclo[3.1.1]heptane-6-yl)piperidine-1-yl)-4-methoxyphenyl) acrylamide] | 
